Results on eleven compounds are retold here after US6528510B1, “HIV protease inhibitors” (Warner-Lambert Company, priority 1998, dated 2003).

Where two headings read alike, the source gives them in different places.

For data set [1], the target named is T1, Recombinant HIV-1 protease (Human immunodeficiency virus type 1 group M subtype B, UniProt P04585).
T1 construct: Recombinant HIV-1 protease (>96% purity); purchased Bachem Bioscience, Inc. (King of Prussia, Pa.)
As to the kind of experiment: HIV protease assay (Ki determination, HPLC readout of substrate III cleavage). Format: biochemical. As for the experimental part: Recombinant HIV-1 protease (>96% purity) and HIV protease substrate III (the undecapeptide H-His-Lys-Ala-Arg-Val-Leu-Nph-Glu-Ala-Nle-Ser-NH2, 97% purity) were purchased from Bachem Bioscience, Inc. (King of Prussia, Pa.).
The methods employed follow the procedures of Tummino, et al., Archives of Biochemistry and Biophysics, 1995;316:523). […] (total volume, […]). […] The final inhibitor concentrations used were 0 (0.1, 0.2, in some experiments), 0.5, 1, 2, 5, 10, 20, 50, and 100 μM. The solution was mixed, incubated for 5 minutes and the reaction quenched by addition of trifluoracetic acid, 2% final. The (leu-p-nitro-phe) bond of the substrate is cleaved by the enzyme and substrate arid products separated by reverse-phase HPLC. Absorbance was measured at 220 nm, peak areas determined, and percentage conversion to product used to calculate percentage control (=[% conversion (+inhibitor)/% conversion (−inhibitor)]×100).

Data set [2] relates to HIV infected lymphocyte derived CEM cells. As to the kind of experiment: Cellular infection assay in CEM cells, XTT cytopathic procedure (EC50). The settings on record: for TI (therapeutic index, TC50/EC50): CEM cells; for EC50: read-out: Antiviral Efficacy EC50. The protocol: (§1) Compound concentrations were 0.32, 1, 3.2, 10, 32, and 100 uM.
For orientation: Formazan colour is commonly taken as a measure of viable cells.

The nature of data set [3]: Cellular toxicity in uninfected CEM cells, XTT (TC50). To be noted: human, uninfected CEM cells (lymphocyte derived). As for the experimental part: as §1
The nature of data set [4]: Rat blood levels after IV dosing. It is filed as in vivo. To be noted: plasma, rats, IV dose of 10 mg/kg; for half-life: read-out: T 1/2 (half life) (converted). The protocol: (§2) The procedure for pharmacokinetics analysis in dogs and rats was similar. For dog studies, two dogs received a single oral 10 mg/kg dose of the HIV protease inhibitor as a solution. The protease inhibitor was dissolve in 0.1N NaOH followed by buffering or diluting with isotonic phosphate buffer or water depending on solubility. For rat studies. two male rats received a single oral 10 mg/kg gavage dose of the HIV protease inhibitor suspended in 0.5% methylcellulose. For the IV administration, the compounds were dissolved in 0.1N sodium hydroxide at a concentration of 10 mg/ml. The IV dose was given bolus. Blood samples were collected prior to dosing and at 0.25, 0.5, 1, 1.5, 2, 3, 4, 8, 12, and 24 hours postdose. Plasma samples were analyzed for the HIV protease inhibitor using a HPLC procedure. The method involved plasma protein precipitation with acetonitrile, reverse-phase chromatographic separation of the HIV protease inhibitor and internal standard, and quantitation by UV detection. Some plasma samples were concentrated by evaporation prior to injection. Pharmacokinetic parameters were determined by noncompartmental analysis of individual rat-plasma concentration-time curves using WinNonlin. Maximum concentration (Cmax) and time for these to occur (tmax) were recorded as observed. Area under concentration-time curve (AUC) values were obtained using the linear trapezoidal rule.

For data set [5], the system named is uninfected CEM cells. As to the kind of experiment: Cellular toxicity in uninfected CEM cells, XTT (TC50). As for the experimental part: as §1
A short description of data set [6]: Mouse blood levels after oral dosing. To be noted: CD-1, mouse, plasma, mice, oral dose of 25 mg/kg; for Cmax: read-out: Cmax (maximum concentration reached within the plasma); for half-life: read-out: T 1/2 (half life) (converted). It is filed as in vivo, Charles River CD-1 mice. The protocol: Charles River CD-1 mice were dosed with a 25 mg/kg drug solution orally by gavage. For oral dosing the compounds were dissolved in 0.1N NaOH (20% final volume) and then 0.5% methylcellulose (80% final volume) was added. Blood was drawn and pooled from 5 mice at each time point via heart puncture and was placed in a 15 mL centrifuge tube containing heparin. The plasma stored in 200 μL aliquots at −80° C. until assayed.
Plasma was thawed at room temperature and then 400 μL of acetonitrile was added to each vial and vortexed. Following centrifugation the supernatant was removed and evaporated in a nitrogen evaporator at 48° C. Residue was then resolublized in 200 μL of a 75% water/25% CH3CN solution for HPLC analysis. HPLC analysis used a Zorbax RX-C8 column (4.6×150 mm) with a 25 mM potassium phosphate buffer with 0.1% TFA, pH 3.0. Mobile phases consisted of varying percentages of two buffer mixtures: Buffer A—90% buffer, 10% CH3CN, and Buffer B—30% buffer, 70% CH3CN.
A standard curve ranging from 0.5 to 50 μg/mL was used for each drug tested. Ten times final concentration solutions of drug in water were prepared from stock solutions of 1 mg/mL drug in DMSO. The final 1:10 dilution was then done in mouse plasma obtained from mice described above.

Data set [7] is described as follows: Rat blood levels after oral dosing. It is filed as in vivo. To be noted: male, plasma, rats, oral dose of 10 mg/kg; for Cmax: read-out: Cmax (maximum concentration reached within the plasma); for half-life: read-out: T 1/2 (half life) (converted). As for the experimental part:
as §2

Data set [8] in a line: Dog blood levels after oral dosing. The settings on record: plasma, dogs, oral dose of 10 mg/kg; for half-life: read-out: T 1/2 (half life) (converted). It is filed as in vivo. As for the experimental part:
as §2

Data set [9] relates to HIV infected lymphocyte derived CEM cells. To be noted: as disclosed by Hagen et al., J. Med. Chem. 1997; cited from earlier work.
For data set [10] the following is noted: as disclosed by Vander Roest et al., ICAAC 1997, relative to related polar substituted derivatives; cited from earlier work.
Where [11] appears, read: Human immunodeficiency virus 1, CCRF-CEM.
[12] abbreviates: recombinant HIV-1 protease, read-out: Inhib of HIV Protease KI.
Where [13] appears, read: read-out: Antiviral Efficacy TC50, uninfected CEM cells.

What is called Ki is a measure of affinity in units of concentration, obtained from inhibition or displacement. Broadly, the EC50 is the concentration giving half of the maximal effect. Turning to `CC(C)[C@]1(CCc2cccc(F)c2)CC(O)=C(Sc2cc3sc(N)nc3cc2C(C)(C)C)C(=O)O1` [Example 83, (S)-3-(2-Amino-5-tert-butyl-benzothiazol-6-ylsulfanyl)-6-[2-(3-fluoro-phenyl)-ethyl]-4-hydroxy-6-isopropyl-5,6-dihydro-pyran-2-one], in [1], the Ki came to 0.44 nM. In data set [2], the “TI (therapeutic index, TC50/EC50)” value amounted to 235. The concentration for a half-maximal effect (EC50) in data set [2] (setting [11]) came out at 260 nM. The CC50 in [3] was 61000 nM. In data set [4], the C0 came out at 199 µM and the half-life was 4 h.
With `Cc1cc(SC2=C(O)CC(CCc3cc[nH]n3)(C(C)C)OC2=O)c(C(C)(C)C)cc1N` (stereo not shown) [Example 41], the inhibitory constant (Ki) in data set [1] (setting [12]) is 6.5 nM. In data set [2], the “TI (therapeutic index, TC50/EC50)” value stood at 10. The EC50 in data set [2] (HIV infected CEM cells) is 20000 nM. In addition, the CC50 in data set [5] (setting [13]) stood at 195000 nM.
In the same order, the values of “3-(4-Amino-2-tert-butyl-5-methyl-phenylsulfanyl)-6-(2-furan-3-yl-ethyl)-4-hydroxy-6-isopropyl-5,6-dihydro-pyran-2-one [Example 36]” are 1.7 nM, 77, 2200 nM and 170000 nM.
In the case of `Cc1cc(SC2=C(O)CC(CCc3ccc(N)cc3)(C(C)C)OC2=O)c(C(C)(C)C)cc1CO` (stereo not shown) [Reference Agent 1, reference compound], the Ki in [1] came out at 0.43 nM. Moreover, the “TI (therapeutic index, TC50/EC50)” value in data set [2] is on record as greater than 200. For the same compound, the concentration giving a half-maximal response (EC50) in data set [2] (setting [11]) was determined as 500 nM. Further, the CC50 in data set [3] is greater than 100000 nM. The Cmax in [6] amounted to 23 µM; in data set [7], 16 µM; in [8] it was 140 µM. Also, the half-life was 2.2 h in data set [6], 3.4 h in data set [7], 1.25 h in data set [8] and 3.7 h in data set [4]. For the same compound, the C0 in data set [4] was determined as 86 µM. In addition, the antiviral activity result in data set [9] was “particularly good antiviral activity”. In addition, the pharmacokinetics in mice result in [10] is given as “comparatively good pharmacokinetics in mice”.
On to “(S)-N-[6-tert-Butyl-5-(4-hydroxy-6-isopropyl-2-oxo-6-[2-(4-hydroxy-phenyl)ethyl]-5,6-dihydro-2H-pyran-3-ylsulfanyl)-indolin-1yl]-(4-cyanophenyl)sulfonamide [Example 70]”, for which the inhibition constant (Ki) in data set [1] (setting [12]) was found to be 0.82 nM. For the same compound, in data set [2], the “TI (therapeutic index, TC50/EC50)” value amounted to 6. Besides, in [2] (HIV infected CEM cells), the EC50 was determined as 1300 nM. For the same compound, the CC50 in data set [5] (setting [13]) worked out at 8000 nM.
For `CC(C)[C@]1(CCc2ccccc2)CC(O)=C(Sc2cc3sc(N)nc3cc2C(C)(C)C)C(=O)O1` [Example 13, (S)-3-(2-Amino-5-tert-butyl-benzothiazol-6-ylsulfanyl)-4-hydroxy-6-isopropyl-6-phenethyl-5,6-dihydro-pyran-2-one], the “TI (therapeutic index, TC50/EC50)” value in data set [2] was 152. Moreover, the concentration giving a half-maximal response (EC50) in [2] (setting [11]) was 280 nM. This compound had a CC50 in [3] of 42000 nM. In data set [7], the Cmax came to 5.1 µM and the half-life is 8.6 h.
Turning to `Cc1cc(SC2=C(O)CC(CCc3ccc(O)cc3)(C(C)C)OC2=O)c(C(C)(C)C)cc1CO` (stereo not shown) [Reference Agent 2, reference compound], the inhibitory constant (Ki) in [1] (setting [12]) worked out at 0.22 nM. Moreover, the “TI (therapeutic index, TC50/EC50)” value in [2] is on record as greater than 166. The EC50 in data set [2] (setting [11]) was determined as 600 nM. The same compound displayed a CC50 in data set [3] greater than 100000 nM. Also, the Cmax in [6] was found to be 17 µM; in data set [7], 3.4 µM; in data set [8], 40 µM. Moreover, the half-life in data set [6] was 2 h; in [7] it was 0.55 h; in data set [8] it was 0.52 h; in data set [4] it was 3.9 h. In data set [4], this compound had a C0 of 100 µM. Further, the antiviral activity result in data set [9] is “particularly good antiviral activity”. For the same compound, the pharmacokinetics in mice result in data set [10] is given as “comparatively good pharmacokinetics in mice”.
With `Cc1cc(SC2=C(O)C[C@@](CCc3ccsc3)(C(C)C)OC2=O)c(C(C)(C)C)cc1CO` [Example 12, (S)-3-(2-tert-Butyl-4-hydroxymethyl-5-methyl-phenylsulfanyl)-4-hydroxy-6-isopropyl-6-(2-thiophen-3-yl-ethyl)-5,6-dihydro-pyran-2-one], the inhibitory constant (Ki) in data set [1] (setting [12]) is 0.07 nM. Also, in data set [2], the “TI (therapeutic index, TC50/EC50)” value was 650. Further, in [2] (setting [11]), the EC50 was found to be 140 nM. Moreover, the CC50 in data set [3] came to 91000 nM. The Cmax in [6] was found to be 95 µM; in data set [7] it was 30 µM; in [8] it was 149 µM. Moreover, the half-life in data set [6] is 9.5 h; in data set [7] it was 11.5 h; in data set [8], 1.75 h; in data set [4], 12 h. The compound also had a C0 in data set [4] of 160 µM.
For “3-(2-Amino-5-isopropyl-benzothiazol-6-yl-sulfanyl)-6-[2-(4-fluoro-phenyl)-ethyl]-phenethyl-4-hydroxy-6-isopropyl-5,6-dihydro-pyran-2-one [Example 16]”, the “TI (therapeutic index, TC50/EC50)” value in data set [2] is 10.4. Moreover, the 50% effective concentration (EC50) in data set [2] (HIV infected CEM cells) worked out at 11000 nM. The CC50 in data set [5] stood at 114000 nM.
Take `Cc1cc(SC2=C(O)CC(CCc3nccs3)(C(C)C)OC2=O)c(C(C)(C)C)cc1CO` (stereo not shown) [Example 25, 3-(2-tert-Butyl-4-hydroxymethyl-5-methyl-phenylsulfanyl)-4-hydroxy-6-isopropyl-6-(2-thiazol-2-yl-ethyl)-5,6-dihydro-pyran-2-one]: the Ki in [1] (setting [12]) stood at 0.57 nM. In addition, the “TI (therapeutic index, TC50/EC50)” value in [2] is 308. In addition, in data set [2] (setting [11]), the EC50 was determined as 700 nM. In addition, in data set [3], the CC50 was 216000 nM. Also, the Cmax in data set [6] was 33 µM; in [7] it was 6 µM. Further, the half-life in data set [6] was 3.3 h; in data set [7], 12 h; in data set [4], 8 h. This compound had a C0 in data set [4] of 120 µM.
For `CC(C)C1(CCc2ccccc2CO)CC(O)=C(Sc2cc3cc[nH]c3cc2C(C)(C)C)C(=O)O1` (racemic) [Example 69, 4-Hydroxy-3-(6-tert-butyl-indol-5-ylsulfanyl)-6-[2-(2-hydroxymethyl-phenyl)-ethyl]6-isopropyl-5,6-dihydropyran-2-one], the inhibitory constant (Ki) in [1] worked out at 0.67 nM. In [2], the “TI (therapeutic index, TC50/EC50)” value is on record as 306. Besides, the concentration giving a half-maximal response (EC50) in data set [2] (setting [11]) came out at 180 nM. In data set [3], this compound gave a CC50 of 55000 nM. Further, in data set [4], the C0 turned out to be 335 µM and the half-life is 4.5 h.
